Results from paper PMC9977294, “A parasitic fungus employs mutated eIF4A to survive on rocaglate-synthesizing Aglaia plants” (eLife, 2023).
“And” between values parts separate entries of the source, which are not always exact repeats. Equal values may be shown once. “Also recorded” adds a separate entry of the source.

What was measured:
[1] = tested on: C. orbiculare eIF4A^His153Gly conidia and mycelia; assay: Ribosome profiling and RNA-Seq, translation efficiency change; assay type: cell-based, Colletotrichum orbiculare; conditions: 3 µM aglafoline, 6 h, compared with eIF4A^WT
Procedure: (§1) Glycerol stocks of C. orbiculare eIF4A^WT#1 and eIF4A^H153G#1 strains were streaked on PDA in 90 mm plastic Petri dishes and incubated for 3 days. A single colony of each strain was transferred onto PDA and incubated for 3 days. The outer edges of colonies were transferred to 90 mm plastic dishes filled with 20 ml of PDB using plastic straws and incubated for 4 days. Aglafoline (0.3 or 3 µM) or DMSO was added to dishes and incubated for 6 h.
(§2) A single colony from the glycerol stocks was cultured by the same method used for mycelium preparation. The outer edges of colonies of each strain were transferred into six 300 ml flasks filled with 100 ml of PDA. Two milliliters of sterilized water was added to each flask, and the flasks were shaken well to ensure that the mycelial cells adhered to the entire surface of the PDA evenly. After 6 days of incubation in the dark, conidia generated on the surface of PDA were suspended in 20 ml of sterilized water. […]
(§3) Sequence data were processed as previously described ([McGlincy and Ingolia, 2017]) with modifications. For ribosome profiling, using the Fastp v0.21.0 ([Chen et al., 2018]) tool, sequences of reads 1 were corrected by reads 2, and quality filtering and adapter sequence removal were performed on reads 1. The adapter-removed reads 1 were split by the barcode sequence. […]

[2] = tested on: C. orbiculare eIF4A^WT conidia and mycelia; assay: as above; assay type: cell-based, Colletotrichum orbiculare; conditions: 0.3 or 3 µM aglafoline, 6 h
Procedure: as §1, §2, §3

C. orbiculare eIF4A^WT = assay: In planta fungal biomass on cucumber cotyledons (RT-qPCR); assay type: in vivo, Colletotrichum orbiculare
Procedure: Fungal inoculation was performed as previously described ([Hiruma and Saijo, 2016]; [Kumakura et al., 2019]) with modifications. Cucumber cotyledons were used for C. orbiculare inoculation. Seeds of cucumber, Cucumis sativus Suyo strain (Sakata Seed Corp.), were planted on a mix of equal amounts of vermiculite (VS Kakou) and Supermix A (Sakata Seed Corp.). Cucumbers were grown at 24°C under a 10 hr light/14 hr dark cycle using biotrons (NK Systems). Cotyledons were detached from seedlings of cucumbers and inoculated with C. orbiculare at 13 days post-germination. C. orbiculare strains (eIF4A^WT#1 and eIF4A^H153G#1, Supplementary file 4) were cultured on 100 ml of 3.9% PDA in a 300 ml flask at 25°C for 6 days in the dark. […] The concentration of conidia was measured with disposable hemacytometers (Funakoshi) and adjusted to 10^5 conidia/ml with or without aglafoline (1 µM). […]
The living fungal biomass in cucumber leaves at 3.5 days postinoculation (dpi) was measured by RT-qPCR. Relative expression levels of the C. orbiculare 60S ribosomal protein L5 gene (GenBank: Cob_v012718) ([Gan et al., 2013]) normalized to that of a cucumber cyclophilin gene (GenBank: AY942800.1) ([Liang et al., 2018]) were determined. […]

`COC(=O)[C@H]1[C@@H](O)[C@@]2(O)c3c(OC)cc(OC)cc3O[C@@]2(c2ccc(OC)cc2)[C@@H]1c1ccccc1` [Aglafoline, methyl rocaglate] was tested, and the translation efficiency change [1] was “attenuated by the His153Gly substitution”, the translation efficiency change [2] was “a subset of mRNAs showed high aglafoline sensitivity in terms of translation efficiency in conidia; also recorded: the reduction was compound dose dependent” and the “in planta fungal biomass” value (C. orbiculare eIF4A^WT; cucumber leaves, 1 µM aglafoline, 3 dpi, Figure 4B) was “reduced the biomass of the WT eIF4A-recombined strain on cucumber leaves”. The “In planta fungal biomass (Figure 4B source data), single replicates” value (C. orbiculare eIF4A^WT; eIF4AWT, aglafoline +, Replicate 1-8) was 0.01241 and 0.4556 and 0.03831 and 0.01038 and 0.09347 and 0.5781 and 0.1819 and 0.09019.
